Experimental data: US7371734B2, “Oligonucleotide compositions and their use for the modulation of immune responses” (Bioniche Life Sciences Inc., priority 2002, dated 2008)
Marks after values point to notes of the source that are not given here.

Legend:
Assay type in all cases: cell-based
[1] = test system: Human dendritic cells; assay: Increase in cell size and granularity of DC (flow cytometry); conditions: 100 μg polynucleotide, 48 hours
Protocol: (§1) Human dendritic cells were obtained from Clonetics (San Diego, Calif., USA) and were cultured in the medium recommended by Clonetics. DC were obtained from three different individuals (see Table 1). Major histocompatability typing was performed on each of these individuals and several of the HLA (human leukocyte antigens) types are shown.
DC were seeded in 1.0 ml at 1.0×10^5 cells/ml in 6-well flat-bottomed tissue culture plates for 48 hours with 100 μg of 6 base N1A, N1B, N2A, N2B, N3A, N3B, N4A, N4B, N5A, N5B, N6A, N6B, N7A or N7B polynucleotides. Cell size (FCS: forward side scatter) and granularity (S SC: side light scatter) were determined by flow cytometry using a FACSCalibur and analyzed using the CELLQuest Pro software (both from Becton-Dickinson, San Diego, Calif., USA). Percentage of DC showing a FCS>500 units and a SSC>400 units have been determined after treatment with 3-OH, 5-OH polynucleotides for DC isolated from three different individuals.

[2] = test system: Human dendritic cells; assay: CD86 levels at the DC cell surface (flow cytometry); conditions: 100 μg, 48 hours
Protocol: as §1
(§2) DC from individuals B and C were seeded in 1.0 ml at 1.0×10^5 cells/ml in 6-well flat-bottomed tissue culture plates for 48 hours with 100 μg of 6 base N1A, N1B, N2A, N2B, N3A, N3B, N4A, N4B, N5A, N5B, N6A, N6B, N7A or N7B polynucleotides. The level of CD86 at the cell surface was determined after 48 hours of incubation by flow cytometry using a PE-conjugated monoclonal antibody directed to CD86 (Serotec) and analyzed by CELLQuest Pro. Results are expressed as the percentage of CD86^hi DC following treatment.

[3] = test system: Human dendritic cells; assay: Induction of IL-1beta production by DC (ELISA); conditions: 100 μg, 48 hours
Protocol: as §1
DC were seeded in 1.0 ml at 1.0×10^5 cells/ml in 6-well flat-bottomed tissue culture plates for 48 hours with 100 μg of 6 base N1A, N1B, N2A, N2B, N3A, N3B, N4A, N4B, N5A, N5B, N6A, N6B, N7A or N7B polynucleotides. Production of IL-1beta was determined in 100 μl of culture supernatant using a commercial ELISA (BioSource, Camarillo, Calif., USA) after 48 hours of incubation. Results are expressed as the “fold” (x) increase in IL-1beta production by treated DC compared to control cells.

[4] = test system: Human dendritic cells; assay: Induction of IL-12 production by DC (ELISA); conditions: 100 μg, 48 hours
Protocol: as §1
DC were seeded in 1.0 ml at 1.0×10^5 cells/ml in 6-well flat-bottomed tissue culture plates for 48 hours with 100 μg of 6 base N1A, N1B, N2A, N2B, N3A, N3B, N4A, N4B, N5A, N5B, N6A, N6B, N7A or N7B polynucleotides. Production of IL-12 was determined in 100 μl of culture supernatant using a commercial ELISA (BioSource) after 48 hours of incubation. Results are expressed as the “fold” (x) increase in IL-12 production by treated DC compared to control cells.

[5] = test system: Human dendritic cells; assay: CD40 levels at the DC cell surface (flow cytometry); conditions: 100 μg, 48 hours
Protocol: as §1
DC from individuals B and C were seeded in 1.0 ml at 1.0×10^5 cells/ml in 6-well flat-bottomed tissue culture plates for 48 hours with 100 μg of 6 base N1A, N1B, N2A, N2B, N3A, N3B, N4A, N4B, N5A, N5B, N6A, N6B, N7A or N7B polynucleotides. The level of CD40 at the cell surface was determined after 48 hours of incubation by flow cytometry (FACSCalibur system) using a FITC-conjugated monoclonal antibody directed to CD40 and analyzed by CELLQuest Pro (all from Becton Dickinson). Results are expressed as the percentage of CD40^hi DC following treatment. The term “CD40^hi” refers to a population of cells identified by flow cytometry as having higher than baseline expression of CD40.

[6] = test system: Human dendritic cells; assay: CD80 levels at the DC cell surface (flow cytometry); conditions: 100 μg, 48 hours
Protocol: as §1
as §2, with “CD80” for “CD86”, “FITC-conjugated” for “PE-conjugated”, “CD80 (Serotec, Oxford, U.K.)” for “CD86 (Serotec)”, “CELLQuest.” for “CELLQuest Pro.”, “CD80^hi” for “CD86^hi”

[7] = test system: Human dendritic cells; assay: Induction of IFN-gamma production by DC (ELISA); conditions: 100 μg, 48 hours
Protocol: as §1
DC were seeded in 1.0 ml at 1.0×10^5 cells/ml in 6-well flat-bottomed tissue culture plates for 48 hours with 100 μg of6 base N1A, N1B, N2A, N2B, N3A, N3B, N4A, N4B, N5A, N5B, N6A, N6B, N7A or N7B polynucleotides. Production of IFN-gamma was determined in 100 μl of culture supernatant using a commercial ELISA (BioSource) after 48 hours of incubation. Results are expressed as the “fold” (x) increase in IFN-gamma production by treated DC compared to control cells.

[8] = test system: Human dendritic cells; assay: MHC-II levels at the DC cell surface (flow cytometry); conditions: DC from individual B; 100 μg, 48 hours
Protocol: as §1
as §2, with “individual” for “individuals”, “B” for “B and C”, “N3B,” for “N3B, N4A, N4B,”, “MHC II” for “CD86”, “FITC-conjugated” for “PE-conjugated”, “MHC II^hi” for “CD86^hi”

[9] = test system: Human dendritic cells; assay: Endocytosis of FITC-dextran by DC; conditions: DC from individual B, 100 μg, 24 hours, untreated control = 100
Protocol: as §1
DC from individual B were seeded in 1.0 ml at 1.0×10^5 cells/ml in 6-well flat-bottomed tissue culture plates for 24 hours with 1 mg/ml of FITC-dextran (20 kDa; Sigma-Aldrich) in the absence or presence of 100 μg of 6 base N2A, N2B, N3A, N3B, N5A, N5B, and N6B polynucleotides at 4° C. (control cell surface binding of FITC-dextran) and 37° C. (to assess endocytosis). Cells were washed three times with ice-cold phosphate buffered saline and analyzed by flow cytometry using CELLQuest Pro. Results are expressed as relative endocytic rate (normalized Δ Mean Fluorescence Value (Δ MFV)). Δ MFV=MFV of DC exposed to FITC-dextran at 37° C.−MFV of DC exposed to FITC-dextran at 4° C. Δ MFV=(ΔMFVsequence/ΔMFVcontrol)×100.

## 5′GGCCGG3′ [N4B] (DNA, all phosphorothioate, methylation of C not given here)
[1]; DC isolated from individual A
  Percentage of DC showing a FCS > 500 units and a SSC > 400 units: 4%
[1]; DC isolated from individual C
  Percentage of DC showing a FCS > 500 units and a SSC > 400 units: 32%
[2]; DC from individual C
  The percentage of CD86^hi DC following treatment: 32%
[3]; DC isolated from individual A
  IL-1beta production by DC (fold increase compared to untreated DC): 1.0 fold
[3]; DC isolated from individual C
  IL-1beta production by DC (fold increase compared to untreated DC): 1.0 fold
[4]; DC isolated from individual A
  IL-12 production by DC (fold increase compared to untreated DC): 1.3 fold
[4]; DC isolated from individual C
  IL-12 production by DC (fold increase compared to untreated DC): 2.6 fold
[5]; DC from individual C
  The percentage of CD40^hi DC following treatment: 16%
[6]; DC from individual B
  The percentage of CD80^hi DC following treatment: 9%
[6]; DC from individual C
  The percentage of CD80^hi DC following treatment: 13%
[7]; DC isolated from individual A
  IFN-gamma production by DC (fold increase compared to untreated DC): 1.0 fold
[7]; DC isolated from individual C
  IFN-gamma production by DC (fold increase compared to untreated DC): 1.0 fold

## 5′GGGCGG3′ [N7B] (DNA, all phosphorothioate, methylation of C not given here)
[1]; DC isolated from individual A
  Percentage of DC showing a FCS > 500 units and a SSC > 400 units: 16%
[1]; DC isolated from individual C
  Percentage of DC showing a FCS > 500 units and a SSC > 400 units: 31%
[2]; DC from individual C
  The percentage of CD86^hi DC following treatment: 34%
[3]; DC isolated from individual A
  IL-1beta production by DC (fold increase compared to untreated DC): 1.1 fold
[3]; DC isolated from individual C
  IL-1beta production by DC (fold increase compared to untreated DC): 0.9 fold
[4]; DC isolated from individual A
  IL-12 production by DC (fold increase compared to untreated DC): 1.8 fold
[4]; DC isolated from individual C
  IL-12 production by DC (fold increase compared to untreated DC): 1.0 fold
[5]; DC from individual C
  The percentage of CD40^hi DC following treatment: 18%
[6]; DC from individual B
  The percentage of CD80^hi DC following treatment: 5%
[6]; DC from individual C
  The percentage of CD80^hi DC following treatment: 5%
[8]
  The percentage of MHC-II^hi DC following treatment: 31** %
[7]; DC isolated from individual A
  IFN-gamma production by DC (fold increase compared to untreated DC): 1.1 fold
[7]; DC isolated from individual C
  IFN-gamma production by DC (fold increase compared to untreated DC): 1.1 fold

## 5′GGGGGG3′ [N5A] (unmodified DNA)
[1]; DC isolated from individual A
  Percentage of DC showing a FCS > 500 units and a SSC > 400 units: 10%
[1]; DC isolated from individual B
  Percentage of DC showing a FCS > 500 units and a SSC > 400 units: 19%
[1]; DC isolated from individual C
  Percentage of DC showing a FCS > 500 units and a SSC > 400 units: 36%
[9]
  Relative endocytic rate (normalized Δ MFV): 209
[2]; DC from individual B
  The percentage of CD86^hi DC following treatment: 20%
[2]; DC from individual C
  The percentage of CD86^hi DC following treatment: 16%
[3]; DC isolated from individual A
  IL-1beta production by DC (fold increase compared to untreated DC): 1.1 fold
[3]; DC isolated from individual B
  IL-1beta production by DC (fold increase compared to untreated DC): 1.1 fold
[3]; DC isolated from individual C
  IL-1beta production by DC (fold increase compared to untreated DC): 1.0 fold
[4]; DC isolated from individual A
  IL-12 production by DC (fold increase compared to untreated DC): 0.9 fold
[4]; DC isolated from individual B
  IL-12 production by DC (fold increase compared to untreated DC): 1.1 fold
[4]; DC isolated from individual C
  IL-12 production by DC (fold increase compared to untreated DC): 1.0 fold
[5]; DC from individual B
  The percentage of CD40^hi DC following treatment: 40** %
[5]; DC from individual C
  The percentage of CD40^hi DC following treatment: 30** %
[6]; DC from individual B
  The percentage of CD80^hi DC following treatment: 18%
[6]; DC from individual C
  The percentage of CD80^hi DC following treatment: 14%
[8]
  The percentage of MHC-II^hi DC following treatment: 19%
[7]; DC isolated from individual A
  IFN-gamma production by DC (fold increase compared to untreated DC): 1.1 fold
[7]; DC isolated from individual B
  IFN-gamma production by DC (fold increase compared to untreated DC): 1.1 fold
[7]; DC isolated from individual C
  IFN-gamma production by DC (fold increase compared to untreated DC): 1.0 fold
